We go through 42 compounds from patent publication US10273208B2, “Screening methods for the binding affinity of chemical entities to biological molecules and NEDD4-1 inhibitors identified by the screening methods” (Northwestern University, priority 2014, dated 2019).

SMILES strings stand for the structures.

Tested on in one experiment: not listed separately
Kind of experiment: NMR rate studies: pseudo-first order reaction with N-acetylcysteine methyl ester. The following applies: electrophile 10 mM, N-acetyl cysteine methyl ester 78 mM, 2:1 deuterated PBS:DMSO-d6, pD 8, NMR. Type of experiment: physicochemical. The source says: We further validated the utility of electrophile 3 as a thiol-reactive tether by making a library of one hundred structurally diverse drug-like fragments 6-105 containing this electrophile. The library was constructed with an HBTU amide coupling with commercially available carboxylic acid fragments (FIG. 2A). The acids were selected with “rule of three” criteria^15 and a subsequent diversity analysis. We measured the reaction rates for the first fifty fragments to confirm that this library would have balanced cysteine reactivity and could be used for irreversible tethering (FIG. 2B).
N-Acetyl cysteine methyl ester was dissolved in 2:1 deuterated PBS:DMSO-d6 (78 mM) with 10 mM CH2Cl2 as an internal standard. The electrophile (10 mM) was then added immediately prior to acquiring spectra. H1 spectra were taken every 30 s for 30 min (or every 4 s for 5 min for highly reactive compounds 1c and 2a-c). The integrals of the vinyl peaks were used to determine the concentration of the electrophile over time. The natural logarithm of the concentration of the electrophile versus time was then plotted using GraphPad Prism software. The linear slope of this plot was used to determine the pseudofirst order rate constant. Deuterated PBS recipe: 20 mM Na3PO4, 50 mM NaCl in D2O was adjusted to pD 8 with DC1 solution.
With `COC(=O)/C=C/CNC(=O)c1cnn(-c2ccccc2OC)c1` [Compound 24], the k pseudo-first order was 0.0005202 s⁻¹.
Still for that read-out and setting: the result for `COC(=O)/C=C/CNC(=O)c1cccc(Cl)n1` [Compound 33] reads 0.0006348 s⁻¹; that for `COC(=O)/C=C/CNC(=O)c1cc(Br)ccc1N` [Compound 35], 0.0005755 s⁻¹; that for `CCn1c(C)c(C(=O)NC/C=C/C(=O)OC)c2cc(OC)ccc21` [Compound 14, Methyl(E)-4-(1-ethyl-5-methoxy-2-methyl-1H-indole-3-carboxamido)but-2-enoate], 0.0005016 s⁻¹.
Compound `CCn1nc(C(C)C)cc1C(=O)NC/C=C/C(=O)OC` [Compound 46] had a k pseudo-first order of 0.0007806 s⁻¹.
Still for that read-out and setting: the result for `COC(=O)/C=C/CNC(=O)C(C)n1cnc2ccccc21` (stereo not drawn) [Compound 48] reads 0.000468 s⁻¹; that for `COC(=O)/C=C/CNC(=O)c1cnn(Cc2ccccc2)c1` [Compound 49], 0.0004975 s⁻¹; that for `CCC(C(=O)NC/C=C/C(=O)OC)N1Cc2ccccc2C1=O` (stereo not drawn) [Compound 18], 0.0006093 s⁻¹.
On the same count and under the same terms, the figure for `COC(=O)/C=C/CNC(=O)c1cc2c([nH]c1=O)CCCC2` [Compound 44] is 0.0006746 s⁻¹; for `COC(=O)/C=C/CNC(=O)c1n[nH]cc1Br` [Compound 50] it is 0.0006514 s⁻¹.
The same measure, in the same setting: the figure for `COC(=O)/C=C/CNC(=O)c1sc(C(C)C)nc1C` [Compound 17] is 0.0006156 s⁻¹; for `COC(=O)/C=C/CNC(=O)C1Cc2ccccc2CN1C` (stereo not drawn) [Compound 16] it is 0.0006414 s⁻¹.
`COC(=O)/C=C/CNC(=O)Cn1c(=O)cc(C)c2ccccc21` [Compound 55]: the k pseudo-first order came to 0.000452 s⁻¹.
As for `C=CCN1CC(C(=O)NC/C=C/C(=O)OC)CC1=O` (stereo not drawn) [Compound 40], the k pseudo-first order came out at 0.0004793 s⁻¹.
On the same count and under the same terms, the figure for `COC(=O)/C=C/CNC(=O)c1cc(Br)ccc1OC` [Compound 38] is 0.0007728 s⁻¹; for `COC(=O)/C=C/CNC(=O)c1ccc(-c2ccc(C)o2)cc1` [Compound 23] it is 0.0004979 s⁻¹.
Same read-out and setting: the result for `COC(=O)/C=C/CNC(=O)c1ccccc1N(C)C(=O)c1ccco1` [Compound 51] reads 0.0005048 s⁻¹; that for `COC(=O)/C=C/CNC(=O)c1ccc(OC)cc1` [Compound 28], 0.00042 s⁻¹; that for `COC(=O)/C=C/CNC(=O)[C@@H]1CCCN1C(=O)C1CC1` [Compound 31], 0.0005193 s⁻¹.
Still for that read-out and setting: the figure for `COC(=O)/C=C/CNC(=O)c1ccc(Cl)cn1` [Compound 53] is 0.0005521 s⁻¹.
Regarding `COC(=O)/C=C/CNC(=O)C(CO)c1ccccc1` (stereo not drawn) [Compound 36], the k pseudo-first order was 0.00034 s⁻¹.
The same measure, in the same setting: the result for `COC(=O)/C=C/CNC(=O)c1ccccc1Br` [Compound 34] reads 0.0007717 s⁻¹; that for `COC(=O)/C=C/CNC(=O)c1c(C)nc2cc(C)ccn12` [Compound 45], 0.0003961 s⁻¹.
Same read-out and setting: the result for `COC(=O)/C=C/CNC(=O)c1cc(C2CC2)nc2ccccc12` [Compound 52] reads 0.0005984 s⁻¹.
In turn, `COC(=O)/C=C/CNC(=O)CN(C)C1CCCC1` [Compound 20] came in with a k pseudo-first order of 0.0005603 s⁻¹.
Turning to `COC(=O)/C=C/CNC(=O)C1COc2c(cccc2OC)C1` (stereo not drawn) [Compound 26], the k pseudo-first order is 0.0006107 s⁻¹.
Same read-out and setting: the result for `COC(=O)/C=C/CNC(=O)c1c(C)[nH]c2c1C(=O)CCC2` [Compound 41] reads 0.0005635 s⁻¹.
Still for that read-out and setting: the result for `COC(=O)/C=C/CNC(=O)Cc1ccncc1` [Compound 25] reads 0.0005202 s⁻¹; that for `CCC(C(=O)NC/C=C/C(=O)OC)n1cccn1` (stereo not drawn) [Compound 39], 0.000651 s⁻¹; that for `COC(=O)/C=C/CNC(=O)c1c(C)n(C)c2ccc(OC)cc12` [Compound 43], 0.0007616 s⁻¹.
On the same count and under the same terms, the figure for `COC(=O)/C=C/CNC(=O)c1c(C)[nH]c2ccc(OC)cc12` [Compound 12, Methyl(E)-4-(5-methoxy-2-methyl-1H-indole-3-carboxamido)but-2-enoate] is 0.000654 s⁻¹; for `COC(=O)/C=C/CNC(=O)c1ccc(CN2CCc3ccccc3C2)cc1` [Compound 30] it is 0.0006579 s⁻¹.
Consider `COC(=O)/C=C/CNC(=O)CNC(=O)c1ccccc1Br` [Compound 54], for which the k pseudo-first order turned out to be 0.0005048 s⁻¹.
On the same count and under the same terms, the figure for `COC(=O)/C=C/CNC(=O)Cn1nc(C)cc1C` [Compound 37] is 0.0004493 s⁻¹.
The same measure, in the same setting: the result for `COC(=O)/C=C/CNC(=O)c1c[nH]nc1-c1cccc(F)c1` [Compound 47] reads 0.0006539 s⁻¹; that for `COC(=O)/C=C/CNC(=O)c1c[nH]c2ccc(OC)cc12` [Compound 13, Methyl(E)-4-(5-methoxy-1H-indole-3-carboxamido)but-2-enoate], 0.0003582 s⁻¹; that for `COC(=O)/C=C/CNC(=O)c1ccnc(C)c1` [Compound 29], 0.0004038 s⁻¹.
Still for that read-out and setting: the figure for `COC(=O)/C=C/CNC(=O)C1CC(=O)N(C)c2ccccc21` (stereo not drawn) [Compound 15] is 0.0007733 s⁻¹; for `COC(=O)/C=C/CNC(=O)c1cc(C)nc2ccc(C)cc12` [Compound 27] it is 0.0006665 s⁻¹.
`COC(=O)/C=C/CNC(=O)Cc1c(C)nn(-c2ccccc2)c1C` [Compound 42]: the k pseudo-first order was 0.0005281 s⁻¹.
The compound `COC(=O)/C=C/CNC(=O)Cn1ncc2ccccc21` [Compound 21] displayed a k pseudo-first order of 0.0003327 s⁻¹.

The target of a further experiment is T1, NEDD4-1 HECT domain (Homo sapiens, UniProt P46934).
T1 construct: to elute NEDD4-1 HECT domain (50 mM HEPES, 150 mM NaCl, 0.1 mM EDTA 1 mM DTT); GST (N, cleaved yes); made in house; host or cells: E. coli BL21
T1 sequence (P46934 with tags, fused parts or gaps): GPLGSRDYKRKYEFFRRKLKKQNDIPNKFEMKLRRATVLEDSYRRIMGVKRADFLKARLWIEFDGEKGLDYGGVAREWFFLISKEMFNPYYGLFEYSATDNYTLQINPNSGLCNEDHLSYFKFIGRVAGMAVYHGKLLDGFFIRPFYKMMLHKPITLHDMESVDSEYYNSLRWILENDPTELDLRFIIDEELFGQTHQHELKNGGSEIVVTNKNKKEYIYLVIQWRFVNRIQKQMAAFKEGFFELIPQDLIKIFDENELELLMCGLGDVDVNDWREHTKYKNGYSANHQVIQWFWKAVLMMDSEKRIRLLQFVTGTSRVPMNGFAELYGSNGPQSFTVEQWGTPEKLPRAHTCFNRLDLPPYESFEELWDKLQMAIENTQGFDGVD
Kind of experiment: Covalent labeling of NEDD4-1 HECT domain (gel filtration, whole protein ESI-MS). Format: binding. The following applies: compound 100 μM, NEDD4-1 HECT 10 μM, 4 h. As for the experimental part:
10 μM of NEDD4-1 HECT domain in 50 mM HEPES 150 mM NaCl 0.1 mM EDTA 1 mM DTT pH 7.5 was treated with a mixture of ten fragments (from 10 mM each DMSO stock solution mixtures; final concentrations: 100 μM of each fragment, and 1% DMSO). Fragment structures and mixture compositions were the same as reported previously. The reaction mixture was incubated for 4 h at 23° C. before being passed through Zeba gel filtration columns (Thermo, 7K MWCO) to remove unreacted fragments. The protein solution was then immediately analyzed by whole protein LC/ESI-MS.
Accurate-mass data were obtained on an Agilent 6210A LC-TOF mass spectrometer in positive ion mode using electrospray ionization. Samples were chromatographed on the LC-TOF instrument using a Poroshell 120 EC-C18 HPLC column (2.1*50 mm, 2.7 micron), an Agilent Series 1200 HPLC binary pump, and an Agilent Series 1200 autoinjector. The HPLC column was held at 45° C. and the autosampler was held at 8° C. Mobile Phase A was a solution of 0.1% formic acid in water:acetonitrile (19:1). Mobile Phase B was a solution of 0.1% formic acid in acetonitrile. The flow rate was set to 250 μL/min. The gradient used was 0% B for 2 minutes, ramping linearly to 90% B from 2 minutes to 5 minutes, holding at 90% B from 5 minutes to 7 minutes, and then returning to 0% B at 7.1 minutes. The column was allowed to equilibrate for 2.7 minutes before the next injection was initiated. The eluent from the column was diverted to waste for the first 2 minutes. The spectra were acquired from 301 to 3200 daltons using a gas temperature of 340° C., a gas flow of 7 liters/min, and the nebulizer gas at 35 psi. The following voltages were used: capillary 4200 V, fragmentor 230V, skimmer 64V, and octapole RF peak 250V. Spectra were acquired at a rate of 1 spectra/sec. The data was processed using MassHunter software version B.02.00. Maximum entropy deconvolutions were performed with a Mass Step of 1, S/N Threshold of 30, Average Mass at 90% of Peak Height, and 5 Charge States Minimum.
10 μM of NEDD4-1 HECT domain in 50 mM HEPES 150 mM NaCl 0.1 mM EDTA 1 mM DTT pH 7.5 was treated with 1 mM of inhibitor 1 or 2 (from 100 mM DMSO stock solution; final concentrations: 1 mM of inhibitor, 1% DMSO, and 0.2% CHAPS to solubilize the inhibitors at 1 mM). The reaction mixture was incubated for 4 h at 23° C. before being passed through Zeba gel filtration columns (Thermo, 7K MWCO) to remove unreacted inhibitor. The protein solution was then immediately used for crystallization or enzymatic assay.
For the compound `CCOc1ccc2c(c1)c(C(=O)NC/C=C/C(=O)OC)c(C)n2C` [Compound 10, Methyl(E)-4-(5-ethoxy-1,2-dimethyl-1H-indole-3-carboxamido)but-2-enoate], the “labeling of NEDD4-1 HECT domain (qualitative)” value was “did not label NEDD4-1”.
